From ChEMBL document CHEMBL1122381, “Synthesis and antitumor activity of 7- and 9-(6'-deoxy-alpha-L-talofuranosyl) hypoxanthine and 9-(6'-deoxy-alpha-L-talofuranosyl)-6-thiopurine” (1983)
Activity calls are given as the source filed them. The calls are words filed in the database; no cut-off is given here.

How the values were obtained:
[1] = test system: L1210; experiment: Antitumor activity against L1210 tumor cells tested in vivo; NA means inactive.; type: functional, organism-based; conditions: Mus musculus
[2] = test system: L1210; experiment: Antitumor activity against L1210 tumor cells in vivo and the value is expressed as T / C ([…]) at a dose of 10000 ug/kg; type: functional, Mus musculus
[3] = test system: L1210; experiment: Antitumor activity against L1210 tumor cell growth in vitro and the value is expressed as % inhibition at a dose of 1 ug/mL; type: functional; conditions: Mus musculus
[4] = target: T1, Purine nucleoside phosphorylase (Bos taurus) (UniProt P55859); experiment: Antitumor activity by inhibiting purine nucleoside phosphorylase (PNPase) enzyme; NA means inactive.
T1 sequence (whole entry): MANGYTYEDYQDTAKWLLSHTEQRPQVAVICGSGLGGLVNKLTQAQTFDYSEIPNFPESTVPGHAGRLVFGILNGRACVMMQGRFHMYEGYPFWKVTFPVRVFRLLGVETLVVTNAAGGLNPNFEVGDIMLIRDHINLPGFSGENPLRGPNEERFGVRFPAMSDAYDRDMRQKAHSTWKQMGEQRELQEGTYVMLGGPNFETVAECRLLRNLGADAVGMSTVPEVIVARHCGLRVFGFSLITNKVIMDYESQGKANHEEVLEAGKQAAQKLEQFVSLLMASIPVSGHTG

Question: For `CC(O)[C@H]1O[C@@H](n2cnc3ncnc(O)c32)[C@H](O)[C@@H]1O` (stereo not given in full), which T/C [1] is on record?
Answer: inactive

Question: With `CC(O)[C@H]1O[C@@H](n2cnc3c(S)ncnc32)[C@H](O)[C@@H]1O` (stereo not given in full) as the molecule, how does the T/C [2] read?
Answer: 146

Question: What about the inhibition at 1 µg/mL [3] of the same molecule?
Answer: 50%

Question: And the inhibition [4]?
Answer: inactive

Question: Which inhibition [4] does the source give for `CC(O)[C@H]1O[C@@H](n2cnc3c(O)ncnc32)[C@H](O)[C@@H]1O` (stereo not given in full) here?
Answer: inactive
